Experimental data as given in patent US12582722B2, “Bifunctional compounds for degrading BTK via ubiquitin proteosome pathway” (NURIX THERAPEUTICS, INC., priority 2019, dated 2026).

target: T1, BTK (Homo sapiens, UniProt Q06187); experiment: Cellular BTK HTRF Assay (BTK degradation in Ramos cells); format: cell-based; details: four hours incubation, 37° C., BTK levels relative to DMSO-treated cells
T1 construct: endogenous in cells; host or cells: Ramos (ATCC CRL-1596)
Description: Ramos (CRL-1596) cells were obtained from American Type Culture Collection and were grown in RPMI-1640 media (ATCC, 30-2001) supplemented with 10% heat-inactivated FBS (Corning Premium Fetal Bovine Serum from Fisher, MT35015CV).
Compounds of the present invention were added to 50,000 Ramos cells in round-bottom 96 well plates with a final DMSO concentration of […] and were incubated at 37° C., 5% CO2 for four hours. BTK levels were determined using Cisbio Total-BTK HTRF ([…] Time-Resolved Fluorescence) kit (63ADK064PEG) according to manufacturer's protocol. Briefly, cells were incubated in 1× supplied lysis buffer for 30 minutes. In an opaque white low volume 96 well plate (Cisbio, 66PL96005), cell lysate was combined with two different specific BTK antibodies, one conjugated with Eu^3+-Cryptate FRET donor and one conjugated with d2 FRET acceptor. Assay controls include wells containing cell lysate with only the Eu^3+-Cryptate FRET donor antibody and wells containing both HTRF antibodies and lysis buffer without cells or control lysate provided by Cisbio. HTRF ratio was calculated as (acceptor signal at 665 nm/donor signal at 620 nm)×10^4. Background HTRF levels were determined from the control well containing the donor, but no acceptor, antibody. Background HTRF levels were subtracted from all samples. Readouts were reported as HTRF levels relative to HTRF levels of DMSO-treated cells. Four-parameter non-linear regressions were performed in GraphPad Prism 7.02 to obtain DC50 values. DC50 values are provided in Table 3, wherein A<7.5 nM, 7.5 nM≤B≤50 nM, and 50 nM<C<500 nM.

T1 sequence (Q06187 whole entry): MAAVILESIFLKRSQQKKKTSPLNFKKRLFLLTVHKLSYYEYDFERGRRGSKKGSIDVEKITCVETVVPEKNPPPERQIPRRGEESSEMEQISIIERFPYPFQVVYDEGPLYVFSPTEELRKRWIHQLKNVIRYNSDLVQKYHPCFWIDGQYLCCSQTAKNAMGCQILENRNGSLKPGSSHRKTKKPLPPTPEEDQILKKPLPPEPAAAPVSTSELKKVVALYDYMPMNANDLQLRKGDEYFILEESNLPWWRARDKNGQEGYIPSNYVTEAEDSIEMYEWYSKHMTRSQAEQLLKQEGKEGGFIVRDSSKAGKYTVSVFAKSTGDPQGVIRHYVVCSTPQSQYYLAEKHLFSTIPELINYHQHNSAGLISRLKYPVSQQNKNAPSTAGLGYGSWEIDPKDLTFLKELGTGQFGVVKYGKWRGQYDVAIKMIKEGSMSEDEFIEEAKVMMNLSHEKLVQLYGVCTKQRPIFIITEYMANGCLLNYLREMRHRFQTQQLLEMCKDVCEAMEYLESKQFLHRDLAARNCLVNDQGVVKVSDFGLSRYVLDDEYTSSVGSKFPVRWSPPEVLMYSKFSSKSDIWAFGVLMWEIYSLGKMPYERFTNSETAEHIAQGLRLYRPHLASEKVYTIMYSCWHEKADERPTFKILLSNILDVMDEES

| Structure (SMILES) | DC50 |
| --- | --- |
| CS(=O)(=O)c1ccc(Nc2nc(N3CCC[C@@H](NC(=O)C4CCN(CC5CCN(c6ccc7c(c6)C(=O)N(C6CCC(=O)NC6=O)C7=O)CC5)CC4)C3)cnc2C(N)=O)cc1 (stereo partly drawn) [Compound 20, 5-[(3R)-3-[1-({1-[2-(2,6-dioxopiperidin-3-yl)-1,3-dioxoisoindol-5-yl]piperidin-4-yl}methyl)piperidine-4-amido]piperidin-1-yl]-3-[(4-methanesulfonylphenyl)amino]pyrazine-2-carboxamide] | < 7.5 nM |
| Cn1cc(Nc2nc(N3CCC[C@@H](NC(=O)C4CCN(CC5CCN(c6ccc7c(c6)C(=O)N(C6CCC(=O)NC6=O)C7=O)CC5)CC4)C3)cnc2C(N)=O)cn1 (stereo partly drawn) [Compound 21, 5-((3R)-3-(1-((1-(2-(2,6-dioxopiperidin-3-yl)-1,3-dioxoisoindolin-5-yl)piperidin-4-yl)methyl)piperidine-4-carboxamido)piperidin-1-yl)-3-((1-methyl-1H-pyrazol-4-yl)amino)pyrazine-2-carboxamide] | < 7.5 nM |
| Cc1cc(Nc2nc(N3CCC[C@@H](NC(=O)C4CCN(CC5CCN(c6ccc7c(c6)C(=O)N(C6CCC(=O)NC6=O)C7=O)CC5)CC4)C3)cnc2C(N)=O)sn1 (stereo partly drawn) [Compound 22, 5-[(3R)-3-[1-({1-[2-(2,6-dioxopiperidin-3-yl)-1,3-dioxoisoindol-5-yl]piperidin-4-yl}methyl)piperidine-4-amido]piperidin-1-yl]-3-[(3-methyl-1,2-thiazol-5-yl)amino]pyrazine-2-carboxamide] | < 7.5 nM |
| Cc1cc(Nc2nc(N3CCC[C@@H](NC(=O)N4CCN(CC5CCN(c6ccc7c(c6)C(=O)N(C6CCC(=O)NC6=O)C7=O)CC5)CC4)C3)cnc2C(N)=O)sn1 (stereo partly drawn) [Compound 23, 5-[(3R)-3-[4-({1-[2-(2,6-dioxopiperidin-3-yl)-1,3-dioxoisoindol-5-yl]piperidin-4-yl}methyl)piperazine-1-carbonylamino]piperidin-1-yl]-3-[(3-methyl-1,2-thiazol-5-yl)amino]pyrazine-2-carboxamide] | < 7.5 nM |
| CS(=O)(=O)c1ccc(Nc2nc(N3CCC[C@@H](NC(=O)N4CC5(C4)CN(c4ccc6c(c4)C(=O)N(C4CCC(=O)NC4=O)C6=O)C5)C3)cnc2C(N)=O)cc1 (stereo partly drawn) [Compound 24, N-[(3R)-1-{5-carbamoyl-6-[(4-methanesulfonylphenyl)amino]pyrazine-2-yl}piperidin-3-yl]-6-[2-(2,6-dioxopiperidin-3-yl)-1,3-dioxoisoindol-5-yl]-2,6-diazaspiro[3.3]heptane-2-carboxamide] | 7.5 to 50 nM |
| CS(=O)(=O)c1ccc(Nc2nc(N3CCC[C@@H](NC(=O)N4CC5(CN(Cc6ccc7c(c6)C(=O)N(C6CCC(=O)NC6=O)C7=O)C5)C4)C3)cnc2C(N)=O)cc1 (stereo partly drawn) [Compound 25, N-[(3R)-1-{5-carbamoyl-6-[(4-methanesulfonylphenyl)amino]pyrazin-2-yl}piperidin-3-yl]-6-{[2-(2,6-dioxopiperidin-3-yl)-1,3-dioxoisoindol-5-yl]methyl}-2,6-diazaspiro[3.3]heptane-2-carboxamide] | 7.5 to 50 nM |
| CS(=O)(=O)c1ccc(Nc2nc(N3CCC[C@@H](NC(=O)N4CCN(Cc5ccc6c(c5)C(=O)N(C5CCC(=O)NC5=O)C6=O)CC4)C3)cnc2C(N)=O)cc1 (stereo partly drawn) [Compound 26, 5-((3R)-3-(4-((2-(2,6-dioxopiperidin-3-yl)-1,3-dioxoisoindolin-5-yl)methyl)piperazine-1-carboxamido)piperidin-1-yl)-3-((4-(methylsulfonyl)phenyl)amino)pyrazine-2-carboxamide] | 50 to 500 nM |
| Cc1cc(Nc2nc(N3CCC[C@@H](NC(=O)N4CCN(c5ccc6c(c5)C(=O)N(C5CCC(=O)NC5=O)C6=O)CC4)C3)cnc2C(N)=O)sn1 (stereo partly drawn) [Compound 27, 5-[(3R)-3-{4-[2-(2,6-dioxopiperidin-3-yl)-1,3-dioxoisoindol-5-yl]piperazine-1-carbonylamino}piperidin-1-yl]-3-[(3-methyl-1,2-thiazol-5-yl)amino]pyrazine-2-carboxamide] | 50 to 500 nM |
| CS(=O)(=O)c1ccc(Nc2nc(N3CCC[C@@H](NC(=O)N4CCC5(CC4)CN(c4ccc6c(c4)C(=O)N(C4CCC(=O)NC4=O)C6=O)C5)C3)cnc2C(N)=O)cc1 (stereo partly drawn) [Compound 28, N—((R)-1-(5-carbamoyl-6-((4-(methylsulfonyl)phenyl)amino)pyrazine-2-yl)piperidin-3-yl)-2-(2-(2,6-dioxopiperidin-3-yl)-1,3-dioxoisoindolin-5-yl)-2,7-diazaspiro[3.5]nonane-7-carboxamide] | 7.5 to 50 nM |
| CS(=O)(=O)c1ccc(Nc2nc(N3CCC[C@@H](NC(=O)N4CCC5(CC4)CN(Cc4ccc6c(c4)C(=O)N(C4CCC(=O)NC4=O)C6=O)C5)C3)cnc2C(N)=O)cc1 (stereo partly drawn) [Compound 29, N-[(3R)-1-{5-carbamoyl-6-[(4-methanesulfonylphenyl)amino]pyrazin-2-yl}piperidin-3-yl]-2-{[2-(2,6-dioxopiperidin-3-yl)-1,3-dioxoisoindol-5-yl]methyl}-2,7-diazaspiro[3.5]nonane-7-carboxamide] | < 7.5 nM |
| CS(=O)(=O)c1ccc(Nc2nc(N3CCC[C@@H](NC(=O)C4CN(CC5CCN(c6ccc7c(c6)C(=O)N(C6CCC(=O)NC6=O)C7=O)CC5)C4)C3)cnc2C(N)=O)cc1 (stereo partly drawn) [Compound 30, 5-((3R)-3-(1-((1-(2-(2,6-dioxopiperidin-3-yl)-1,3-dioxoisoindolin-5-yl)piperidin-4-yl)methyl)azetidine-3-carboxamido)piperidin-1-yl)-3-((4-(methylsulfonyl)phenyl)amino)pyrazine-2-carboxamide] | 7.5 to 50 nM |
| CS(=O)(=O)c1ccc(Nc2nc(N3CCC[C@@H](NC(=O)C4CCC5(CC4)CCN(Cc4ccc6c(c4)C(=O)N(C4CCC(=O)NC4=O)C6=O)CC5)C3)cnc2C(N)=O)cc1 (stereo partly drawn) [Compound 31, N—((R)-1-(5-carbamoyl-6-((4-(methylsulfonyl)phenyl)amino)pyrazin-2-yl)piperidin-3-yl)-3-((2-(2,6-dioxopiperidin-3-yl)-1,3-dioxoisoindolin-5-yl)methyl)-3-azaspiro[5.5]undecane-9-carboxamide] | < 7.5 nM |

The remaining lines, values ahead:

| DC50 | Structure (SMILES) |
| --- | --- |
| 7.5 to 50 nM | CS(=O)(=O)c1ccc(Nc2nc(N3CCC[C@@H](NC(=O)C4CC5(C4)CN(Cc4ccc6c(c4)C(=O)N(C4CCC(=O)NC4=O)C6=O)C5)C3)cnc2C(N)=O)cc1 (stereo partly drawn) [Compound 32, N—((R)-1-(5-carbamoyl-6-((4-(methylsulfonyl)phenyl)amino)pyrazin-2-yl)piperidin-3-yl)-2-((2-(2,6-dioxopiperidin-3-yl)-1,3-dioxoisoindolin-5-yl)methyl)-2-azaspiro[3.3]heptane-6-carboxamide] |
| < 7.5 nM | CS(=O)(=O)c1ccc(Nc2nc(N3CCC[C@@H](NC(=O)[C@H]4[C@@H]5CN(CC6CCN(c7ccc8c(c7)C(=O)N(C7CCC(=O)NC7=O)C8=O)CC6)C[C@@H]54)C3)cnc2C(N)=O)cc1 (stereo partly drawn) [Compound 33, (1R,5S,6r)-N—((R)-1-(5-carbamoyl-6-((4-(methylsulfonyl)phenyl)amino)pyrazin-2-yl)piperidin-3-yl)-3-((1-(2-(2,6-dioxopiperidin-3-yl)-1,3-dioxoisoindolin-5-yl)piperidin-4-yl)methyl)-3-azabicyclo[3.1.0]hexane-6-carboxamide] |
| 7.5 to 50 nM | CS(=O)(=O)c1ccc(Nc2nc(N3CCC[C@@H](NC(=O)C4CC5CCC(C4)N5CC4CCN(c5ccc6c(c5)C(=O)N(C5CCC(=O)NC5=O)C6=O)CC4)C3)cnc2C(N)=O)cc1 (stereo partly drawn) [Compound 34, (1R,3s,5S)—N—((R)-1-(5-carbamoyl-6-((4-(methylsulfonyl)phenyl)amino)pyrazin-2-yl)piperidin-3-yl)-8-((1-(2-(2,6-dioxopiperidin-3-yl)-1,3-dioxoisoindolin-5-yl)piperidin-4-yl)methyl)-8-azabicyclo[3.2.1]octane-3-carboxamide] |
| 7.5 to 50 nM | CS(=O)(=O)c1ccc(Nc2nc(N3CCC[C@@H](NC(=O)[C@H]4[C@@H]5CN(C6CCN(c7ccc8c(c7)C(=O)N(C7CCC(=O)NC7=O)C8=O)CC6)C[C@@H]54)C3)cnc2C(N)=O)cc1 (stereo partly drawn) [Compound 35, (1R,5S,6r)-N—((R)-1-(5-carbamoyl-6-((4-(methylsulfonyl)phenyl)amino)pyrazin-2-yl)piperidin-3-yl)-3-(1-(2-(2,6-dioxopiperidin-3-yl)-1,3-dioxoisoindolin-5-yl)piperidin-4-yl)-3-azabicyclo[3.1.0]hexane-6-carboxamide] |
| < 7.5 nM | CS(=O)(=O)c1ccc(Nc2nc(N3CCC[C@@H](NC(=O)C4CCC5(CC4)CCN(c4ccc6c(c4)C(=O)N(C4CCC(=O)NC4=O)C6=O)CC5)C3)cnc2C(N)=O)cc1 (stereo partly drawn) [Compound 36, N-[(3R)-1-{5-carbamoyl-6-[(4-methanesulfonylphenyl)amino]pyrazin-2-yl}piperidin-3-yl]-3-[2-(2,6-dioxopiperidin-3-yl)-1,3-dioxoisoindol-5-yl]-3-azaspiro[5.5]undecane-9-carboxamide] |
| < 7.5 nM | Cc1cc(Nc2nc(N3CCC[C@@H](NC(=O)C4CCN(C5CN(Cc6ccc7c(c6)C(=O)N(C6CCC(=O)NC6=O)C7=O)C5)CC4)C3)cnc2C(N)=O)sn1 (stereo partly drawn) [Compound 37, 5-[(3R)-3-[1-(1-{[2-(2,6-dioxopiperidin-3-yl)-1,3-dioxoisoindol-5-yl]methyl}azetidin-3-yl)piperidine-4-amido]piperidin-1-yl]-3-[(3-methyl-1,2-thiazol-5-yl)amino]pyrazine-2-carboxamide] |
